Starred links: 1 amine or outer side, 2 acyl side, 3 side chain; linkers in the order of their positions; H or OH if unused. Positions of bridges follow the written chain, without caps; N, C: chain ends. Residues, ends and D or L forms follow the SMILES beside them. *: point of attachment. C18 diacid = O=C(O)CCCCCCCCCCCCCCCCC(=O)*; γGlu = O=C(O)[C@H](CCC(=O)[*:2])N[*:1]; AEEA = NCCOCCOCC(=O)O
How the values were obtained:
[1] = target: T1, human natriuretic peptide receptor 2 (hNPR2) (Homo sapiens, UniProt P20594); assay: In vitro hNPR2 activity assay (cGMP GloSensor reporter, HEK293); format: cell-based; conditions: potency relative to CNP22 (0065)
T1 construct: expressed in transfected cells; host or cells: HEK293 (ATCC CRL-1573), clone 35, co-transfected with pGloSensor-42F
T1 sequence (P20594 23-1047): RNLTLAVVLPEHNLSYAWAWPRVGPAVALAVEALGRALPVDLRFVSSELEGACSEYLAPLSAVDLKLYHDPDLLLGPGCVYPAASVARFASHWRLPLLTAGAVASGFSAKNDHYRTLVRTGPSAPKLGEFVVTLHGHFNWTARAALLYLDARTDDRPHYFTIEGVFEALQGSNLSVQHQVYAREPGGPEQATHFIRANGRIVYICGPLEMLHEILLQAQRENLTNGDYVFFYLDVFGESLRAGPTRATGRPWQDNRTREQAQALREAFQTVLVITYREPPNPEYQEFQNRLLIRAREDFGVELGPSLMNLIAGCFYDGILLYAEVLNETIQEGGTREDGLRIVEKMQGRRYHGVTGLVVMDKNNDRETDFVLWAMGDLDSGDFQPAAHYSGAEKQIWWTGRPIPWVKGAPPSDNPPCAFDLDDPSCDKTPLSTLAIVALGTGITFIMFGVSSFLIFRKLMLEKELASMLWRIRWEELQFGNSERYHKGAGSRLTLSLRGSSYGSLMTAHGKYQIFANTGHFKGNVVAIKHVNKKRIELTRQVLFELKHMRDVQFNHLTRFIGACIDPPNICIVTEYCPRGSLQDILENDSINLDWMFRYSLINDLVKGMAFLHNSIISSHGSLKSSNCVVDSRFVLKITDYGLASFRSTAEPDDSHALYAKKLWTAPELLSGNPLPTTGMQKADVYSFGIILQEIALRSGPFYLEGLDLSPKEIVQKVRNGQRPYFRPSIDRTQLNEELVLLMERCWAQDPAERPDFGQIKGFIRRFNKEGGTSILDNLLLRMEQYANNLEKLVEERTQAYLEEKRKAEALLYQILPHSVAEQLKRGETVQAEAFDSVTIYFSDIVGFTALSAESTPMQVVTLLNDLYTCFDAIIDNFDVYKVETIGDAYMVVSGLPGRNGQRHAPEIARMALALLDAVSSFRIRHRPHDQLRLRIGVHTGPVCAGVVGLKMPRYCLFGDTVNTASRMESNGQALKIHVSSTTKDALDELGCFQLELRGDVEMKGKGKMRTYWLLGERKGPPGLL
Outline: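 Potency is the EC50 from a four-parameter logistic fit, also expressed relative to the in-plate CNP22 control (×100), with at least two replicates. Compounds (ten concentrations, […], HSA-free diluent with 1% OVA, 0.01% Tween20) were incubated 30 min at 37 °C on HEK293 cells co-expressing hNPR2 and a GloSensor cGMP luciferase. Luminescence detected with Bright-Glo.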

[2] = High-Molecular-Weight-Protein (HMWP) formation by SEC-UPLC; format: physicochemical; conditions: increase over two weeks at 37° C.
Description: In order to assess the propensity of CNP compounds to form covalent dimers or oligomers when formulated the High-Molecular-Weight-Protein content of CNP compound formulations at pH 4.0 and 6.5 were determined.
Procedure: The relative amount of covalent HMWP was assessed using SEC-UPLC. SEC-UPLC was conducted using a Waters UPLC Protein BEH SEC column, 125A, 4.6×150 mm, 1.7 μm, with isocratic elution (0.3 M NaCl, 10 mM NaH2PO4 and 5 mM H3PO4, 50% (v/v) isopropanol, pH 2.4) with a flow rate of 0.3 mL/min, a column temperature at 50° C. with UV-detection at 215 nm. The total area of peaks eluting prior to the monomeric main peak was termed HMWP and given on a percentage scale relative to the total peptide peak area.
(§1) Results: HMWP Formation Following 2-Weeks Quiescent Incubation at 37° C.: Samples at pH 4.0 were prepared as described in Example 5 and the amount of HMWP was determined as described above. Samples were incubated for two weeks at 37° C. and the amount of HMWP was determined again. The increase in HMWP over two weeks incubation at 37° C. are reported in Table 10 (in case the incubation period deviated from two weeks the increase in HMWP was normalized to two weeks assuming a constant formation rate).
as §1, with “Samples” for “Results: HMWP Formation Following 2-Weeks Quiescent Incubation at 37° C.: Samples”, “6.5” for “4.0”, “11” for “10”

For `CC[C@H](C)[C@@H]1NC(=O)[C@H](CCCNC(=N)N)NC(=O)[C@H](CC(=O)O)NC(=O)[C@H](CC(C)C)NC(=O)[C@@H]2CCCN2C(=O)[C@H](CC(C)C)NC(=O)CNC(=O)[C@H](Cc2ccccc2)NC(=O)[C@@H](NC(=O)CNC(=O)[C@H](CO)NC(=O)[C@H](CO)NC(=O)[C@@H](NC(=O)CNC(=O)[C@@H](NC(=O)[C@H](CCCCN)NC(=O)[C@H](CCC(N)=O)NC(=O)[C@H](C)NC(=O)CNC(=O)[C@H](Cc2c[nH]cn2)NC(=O)[C@H](Cc2ccc(O)cc2)NC(=O)COCCOCCNC(=O)COCCOCCNC(=O)COCCOCCNC(=O)CC[C@H](NC(=O)CCCCCCCCCCCCCCCCC(=O)O)C(=O)O)[C@@H](C)O)C(C)C)CSSC[C@@H](C(=O)O)NC(=O)CNC(=O)[C@H](CC(C)C)NC(=O)CNC(=O)[C@H](CO)NC(=O)[C@H](CC(C)C)NC(=O)[C@H](CO)NC(=O)CNC1=O` [compound 1352] ({C18 diacid-γGlu-AEEA-AEEA-AEEA}-YHGAQKTGVSSGCFGLPLDRIGSLSGLGC-OH; disulfide 13-29), the “hNPR2 0% HSA. [EC50% rel CNP]” value [1] was 38.6% and the “2-Week HMWP formation at pH 6.5 (%), % relative to total peak area” value [2] was 0.82%.
With `CC[C@H](C)[C@@H]1NC(=O)[C@H](CCCNC(=N)N)NC(=O)[C@H](CC(=O)O)NC(=O)[C@H](CC(C)C)NC(=O)[C@@H]2CCCN2C(=O)[C@H](CC(C)C)NC(=O)CNC(=O)[C@H](Cc2ccccc2)NC(=O)[C@@H](NC(=O)CNC(=O)[C@H](CO)NC(=O)[C@H](CO)NC(=O)[C@H](CC(C)C)NC(=O)CNC(=O)[C@H](CCCCN)NC(=O)[C@H](CCCCN)NC(=O)[C@H](CCC(N)=O)NC(=O)[C@H](C)NC(=O)CNC(=O)[C@H](CCC(=O)O)NC(=O)[C@H](Cc2ccc(O)cc2)NC(=O)CNC(=O)CNC(=O)CNC(=O)COCCOCCNC(=O)COCCOCCNC(=O)CC[C@H](NC(=O)CCCCCCCCCCCCCCCCC(=O)O)C(=O)O)CSSC[C@@H](C(=O)O)NC(=O)CNC(=O)[C@H](CC(C)C)NC(=O)CNC(=O)[C@H](CO)NC(=O)[C@H](CC(C)C)NC(=O)[C@H](CO)NC(=O)CNC1=O` [compound 1378] ({C18 diacid-γGlu-AEEA-AEEA}-GGGYEGAQKKGLSSGCFGLPLDRIGSLSGLGC-OH; disulfide 16-32) the “hNPR2 0% HSA. [EC50% rel CNP]” value [1] was 28.6% and the “2-Week HMWP formation at pH 6.5 (%), % relative to total peak area” value [2] was 6.67%.
In the case of `CC[C@H](C)[C@@H]1NC(=O)[C@H](CCCNC(=N)N)NC(=O)[C@H](CC(=O)O)NC(=O)[C@H](CC(C)C)NC(=O)[C@@H]2CCCN2C(=O)[C@H](CC(C)C)NC(=O)CNC(=O)[C@H](Cc2ccccc2)NC(=O)[C@@H](NC(=O)CNC(=O)[C@H](CCC(N)=O)NC(=O)[C@H](CO)NC(=O)[C@H](CO)NC(=O)CNC(=O)[C@H](Cc2c[nH]cn2)NC(=O)[C@H](Cc2c[nH]cn2)NC(=O)[C@H](CCC(N)=O)NC(=O)[C@H](C)NC(=O)CNC(=O)[C@H](Cc2c[nH]cn2)NC(=O)[C@H](Cc2ccc(O)cc2)NC(=O)[C@H](CCCCN)NC(=O)[C@H](Cc2c[nH]cn2)NC(=O)[C@H](C)NC(=O)[C@H](CCC(N)=O)NC(=O)[C@@H]2CCCN2C(=O)[C@H](Cc2c[nH]cn2)NC(=O)[C@H](CCC(=O)O)NC(=O)[C@H](CCC(N)=O)NC(=O)COCCOCCNC(=O)COCCOCCNC(=O)CC[C@H](NC(=O)CCCCCCCCCCCCCCCCC(=O)O)C(=O)O)CSSC[C@@H](C(=O)O)NC(=O)CNC(=O)[C@H](CC(C)C)NC(=O)CNC(=O)[C@H](CO)NC(=O)[C@H](CC(C)C)NC(=O)[C@H](CO)NC(=O)CNC1=O` [compound 1381] ({C18 diacid-γGlu-AEEA-AEEA}-QEHPQAHKYHGAQHHGSSQGCFGLPLDRIGSLSGLGC-OH; disulfide 21-37), the “hNPR2 0% HSA. [EC50% rel CNP]” value [1] is reported as 38.7% and the “2-Week HMWP formation at pH 4.0 (%), % relative to total peak area” value [2] is reported as 0.84%.
For `CC[C@H](C)[C@@H]1NC(=O)[C@H](CCCNC(=N)N)NC(=O)[C@H](CC(=O)O)NC(=O)[C@H](CC(C)C)NC(=O)[C@@H]2CCCN2C(=O)[C@H](CC(C)C)NC(=O)CNC(=O)[C@H](Cc2ccccc2)NC(=O)[C@@H](NC(=O)CNC(=O)[C@H](CCC(N)=O)NC(=O)[C@H](CO)NC(=O)[C@H](CC(C)C)NC(=O)CNC(=O)[C@H](CCCCN)NC(=O)[C@H](CCCCN)NC(=O)[C@H](CCC(N)=O)NC(=O)[C@H](C)NC(=O)CNC(=O)[C@H](CCCCN)NC(=O)[C@H](Cc2ccc(O)cc2)NC(=O)[C@H](CCCCN)NC(=O)[C@H](Cc2c[nH]cn2)NC(=O)[C@H](C)NC(=O)[C@H](CCC(N)=O)NC(=O)[C@@H]2CCCN2C(=O)[C@H](Cc2c[nH]cn2)NC(=O)[C@H](CCC(=O)O)NC(=O)[C@H](CCC(N)=O)NC(=O)COCCOCCNC(=O)COCCOCCNC(=O)CC[C@H](NC(=O)CC[C@H](NC(=O)CC[C@H](NC(=O)CCCCCCCCCCCCCCCCC(=O)O)C(=O)O)C(=O)O)C(=O)O)CSSC[C@@H](C(=O)O)NC(=O)CNC(=O)[C@H](CC(C)C)NC(=O)CNC(=O)[C@H](CO)NC(=O)[C@H](CC(C)C)NC(=O)[C@H](CO)NC(=O)CNC1=O` [compound 1382] ({C18 diacid-γGlu-γGlu-γGlu-AEEA-AEEA}-QEHPQAHKYKGAQKKGLSQGCFGLPLDRIGSLSGLGC-OH; disulfide 21-37), the “hNPR2 0% HSA. [EC50% rel CNP]” value [1] was 43.8% and the “2-Week HMWP formation at pH 6.5 (%), % relative to total peak area” value [2] was 0%.
For `CC[C@H](C)[C@@H]1NC(=O)[C@H](CCCNC(=N)N)NC(=O)[C@H](CC(=O)O)NC(=O)[C@H](CC(C)C)NC(=O)[C@@H]2CCCN2C(=O)[C@H](CC(C)C)NC(=O)CNC(=O)[C@H](Cc2ccccc2)NC(=O)[C@@H](NC(=O)CNC(=O)[C@H](CO)NC(=O)[C@H](CO)NC(=O)[C@H](CC(C)C)NC(=O)CNC(=O)[C@H](CCCCN)NC(=O)[C@H](CCCCN)NC(=O)[C@H](CCC(N)=O)NC(=O)[C@H](C)NC(=O)CNC(=O)[C@H](CCCCN)NC(=O)[C@H](Cc2ccc(O)cc2)NC(=O)[C@H](CCCCN)NC(=O)[C@H](CCCNC(=N)N)NC(=O)[C@H](C)NC(=O)[C@H](CCC(N)=O)NC(=O)[C@@H]2CCCN2C(=O)[C@H](Cc2c[nH]cn2)NC(=O)[C@H](CCC(=O)O)NC(=O)[C@H](CCC(N)=O)NC(=O)CC[C@H](NC(=O)CC[C@H](NC(=O)CC[C@H](NC(=O)CC[C@H](NC(=O)CCCCCCCCCCCCCCCCC(=O)O)C(=O)O)C(=O)O)C(=O)O)C(=O)O)CSSC[C@@H](C(=O)O)NC(=O)CNC(=O)[C@H](CC(C)C)NC(=O)CNC(=O)[C@H](CO)NC(=O)[C@H](CC(C)C)NC(=O)[C@H](CO)NC(=O)CNC1=O` [compound 1389] ({C18 diacid-γGlu-γGlu-γGlu-γGlu}-QEHPQARKYKGAQKKGLSSGCFGLPLDRIGSLSGLGC-OH; disulfide 21-37), the “hNPR2 0% HSA. [EC50% rel CNP]” value [1] was 52.3% and the “2-Week HMWP formation at pH 4.0 (%), % relative to total peak area” value [2] was 1.43%.

Reference: patent US20240209028A1, “CNP COMPOUNDS” (priority 2022, published 2024)
